# Reference: ChEMBL document CHEMBL4043138, “Synthesis of antimalarial amide analogues based on the plant serrulatane diterpenoid 3,7,8-trihydroxyserrulat-14-en-19-oic acid” (Bioorg Med Chem Lett, 2017)
# Active and inactive are the calls of the source. The calls are words filed in the database; no cut-off is given here.
# Legend:
# [1] = Selectivity index, ratio of IC50 for HEK293 cells to IC50 for Plasmodium falciparum 3D7; assay type: toxicity; conditions: human, HEK293 cells versus Plasmodium falciparum 3D7; read-out: Ratio IC50
# [2] = Selectivity ratio of IC50 for Plasmodium falciparum Dd2 to IC50 for Plasmodium falciparum 3D7; assay type: functional
# [3] = test system: Plasmodium falciparum; assay: Antimalarial activity against Plasmodium falciparum 3D7 after 72 hrs by DAPI staining-based fluorescence microscopic analysis; assay type: functional; conditions: 3D7, 72 h
# [4] = test system: Plasmodium falciparum; assay: Antimalarial activity against Plasmodium falciparum Dd2 after 72 hrs by DAPI staining-based fluorescence microscopic analysis; assay type: functional; conditions: Dd2, 72 h
# [5] = test system: HEK293; assay: Cytotoxicity against HEK293 cells assessed as cell growth inhibition after 72 hrs by Alamar blue assay; assay type: cell-based; conditions: Homo sapiens, HEK293, 72 h
# [6] = test system: HEK293; assay: (§1) Cytotoxicity against HEK293 cells assessed as cell growth inhibition at 80 uM after 72 hrs by Alamar blue assay relative to control; assay type: cell-based; conditions: human, hek293, 72 h, 80 µM
# [7] = test system: Plasmodium falciparum; assay: Antimalarial activity against Plasmodium falciparum Dd2 at 80 uM after 72 hrs by DAPI staining-based fluorescence microscopic analysis; assay type: functional
# [8] = as §1; assay type: cell-based; conditions: human, HEK293 cells; read-out: GI
# [9] = test system: HEK293; assay: Cytotoxicity against HEK293 cells assessed as cell growth inhibition at 40 uM after 72 hrs by Alamar blue assay; assay type: cell-based; conditions: human, hek293, 72 h
# [10] = test system: Plasmodium falciparum; assay: Antimalarial activity against Plasmodium falciparum 3D7 at 10 uM after 72 hrs by DAPI staining-based fluorescence microscopic analysis; assay type: functional
# [11] = Cytotoxicity against HEK293 cells assessed as cell growth inhibition at 20 uM after 72 hrs by Alamar blue assay relative to control; assay type: cell-based; conditions: human, read-out: GI
Compound,IC50 [3] [µM],IC50 [4] [µM],selectivity ratio [1],Ratio IC50 [2],IC50 [5] [µM],growth inhibition (GI) [6],Activity [7],"inhibition at 72 h, 80 µM [8] [%]",growth inhibition (GI) [9],Activity [10],"inhibition at 72 h, 20 µM [11] [%]"
CC(C)=CCC[C@H](C)[C@H]1c2cc(C(=O)O)c(OC(=O)C(C)(C)C)c(OC(=O)C(C)(C)C)c2[C@H](C)C[C@H]1O,13.6,,2.9,,40,,inactive,70,,,
CC(C)=CCC[C@H](C)[C@H]1c2cc(C(=O)NCc3ccc(F)cc3)c(OC(=O)C(C)(C)C)c(OC(=O)C(C)(C)C)c2[C@H](C)C[C@H]1OC(=O)C(C)(C)C,1.79,6.13,44,3.4,80,,,44,,,
CCN(CC)CCCC(C)Nc1ccnc2cc(Cl)ccc12 (stereo not given) [CHLOROQUINE],,,,,40,,,,Non-Toxic,,
CC(=O)OCc1cc2c(c(O)c1O)[C@H](C)C[C@@H](OC(C)=O)[C@H]2[C@@H](C)CCC=C(C)C,6.89,8.76,11.6,1.3,80,,,59,,,
CC(C)=CCC[C@H](C)[C@H]1c2cc(C(=O)NCc3ccccc3)c(OC(=O)C(C)(C)C)c(OC(=O)C(C)(C)C)c2[C@H](C)C[C@H]1OC(=O)C(C)(C)C,2.12,6.17,19,2.9,40,,,82,,,
CC(C)=CCC[C@H](C)[C@H]1c2cc(C(=O)O)c(O)c(OC(=O)C(C)(C)C)c2[C@H](C)C[C@H]1OC(=O)C(C)(C)C,8.44,10.2,4.7,1.2,40,,,100,,,
COc1ccc(C[C@H](N)C(=O)N[C@H]2[C@@H](O)[C@H](n3cnc4c(N(C)C)ncnc43)O[C@@H]2CO)cc1 [PUROMYCIN],0.0532,0.0438,9,1.16,0.46,,,,,,
CC(C)=CCC[C@H](C)[C@H]1c2cc(C(=O)O)c(O)c(O)c2[C@H](C)C[C@H]1O,,,,,,,,,,inactive,
C[C@H]1[C@H](OC(=O)CCC(=O)O)O[C@@H]2O[C@@]3(C)CC[C@H]4[C@H](C)CC[C@@H]1[C@@]24OO3 [ARTESUNATE],,0.001,> 11600,,10,,,,,,91
CC(=O)O[C@@H]1C[C@@H](C)c2c(cc(C(=O)O)c(O)c2O)[C@@H]1[C@@H](C)CCC=C(C)C,,,,,,,,,,inactive,
CC(C)=CCC[C@H](C)[C@H]1c2cc(C(=O)NCCc3ccc(Cl)cc3)c(OC(=O)C(C)(C)C)c(OC(=O)C(C)(C)C)c2[C@H](C)C[C@H]1OC(=O)C(C)(C)C,2.7,5.94,> 30,2.2,80,Non-Toxic,,,,,
CC(C)=CCC[C@H](C)[C@H]1c2cc(C(=O)NCCc3ccc(Br)cc3)c(OC(=O)C(C)(C)C)c(OC(=O)C(C)(C)C)c2[C@H](C)C[C@H]1OC(=O)C(C)(C)C,3.12,7.42,> 26,2.4,80,Non-Toxic,,,,,

# Further compounds by falling IC50 [3], results first:
IC50 [3] [µM],IC50 [4] [µM],Compound,selectivity ratio [1],Ratio IC50 [2],IC50 [5] [µM],growth inhibition (GI) [6],Activity [7],"inhibition at 72 h, 80 µM [8] [%]",growth inhibition (GI) [9],Activity [10],"inhibition at 72 h, 20 µM [11] [%]"
9.97,18,CC(C)=CCC[C@H](C)[C@H]1c2cc(C(=O)O)c(OC(=O)C(C)(C)C)c(OC(=O)C(C)(C)C)c2[C@H](C)C[C@H]1OC(=O)C(C)(C)C,4,1.8,40,,,100,,,
5.65,8.76,CC(C)=CCC[C@H](C)[C@H]1c2cc(C(=O)NCCN(C)C)c(OC(=O)C(C)(C)C)c(OC(=O)C(C)(C)C)c2[C@H](C)C[C@H]1OC(=O)C(C)(C)C,2.6,1.6,14.6,,,,,,
2.44,4.57,CC(C)=CCC[C@H](C)[C@H]1c2cc(C(=O)NCCc3ccc(Cl)cc3)c(OC(=O)C(C)(C)C)c(OC(=O)C(C)(C)C)c2[C@H](C)C[C@H]1O,32,1.9,80,,,68,,,
1.42,5.03,CC(C)=CCC[C@H](C)[C@H]1c2cc(C(=O)NCc3ccc(Br)cc3)c(OC(=O)C(C)(C)C)c(OC(=O)C(C)(C)C)c2[C@H](C)C[C@H]1OC(=O)C(C)(C)C,28,3.6,40,,,71,,,
1.4,3.63,CC(C)=CCC[C@H](C)[C@H]1c2cc(C(=O)NCCc3ccccc3)c(OC(=O)C(C)(C)C)c(OC(=O)C(C)(C)C)c2[C@H](C)C[C@H]1OC(=O)C(C)(C)C,> 57,2.6,80,Non-Toxic,,,,,
1.36,4.96,CC(C)=CCC[C@H](C)[C@H]1c2cc(C(=O)NCc3ccc(Cl)cc3)c(OC(=O)C(C)(C)C)c(OC(=O)C(C)(C)C)c2[C@H](C)C[C@H]1OC(=O)C(C)(C)C,29.4,3.6,40,,,86,,,
1.25,3.76,CC(C)=CCC[C@H](C)[C@H]1c2cc(C(=O)NCCc3ccc(F)cc3)c(OC(=O)C(C)(C)C)c(OC(=O)C(C)(C)C)c2[C@H](C)C[C@H]1OC(=O)C(C)(C)C,> 64,3,80,Non-Toxic,,,,,
